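Dose response: 5 concentrations. Exposure: 48 h. Format: 96-well plates. Endpoint: linear interpolation; highest concentration if not reached. At the GI50, growth is halved. TGI is the concentration that stops growth completely.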

Holding throughout (assay): inhibition of tumour cell growth, NCI panel, 48 h
The subject of experiment [1] is UO-31 renal.
Experiment [2] relates to SR leukemia.
In experiment [3] the test system is MDA-MB-435.
Experiment [4] has as its system HT29 colon.
The subject of experiment [5] is T-47D breast.
Experiment [6] has as its system NCI-H23 lung.
For experiment [7], the system named is NCI-H522 lung.
Experiment [8] deals with OVCAR-8 ovarian.
In experiment [9] the test system is EKVX NSCLC.
The subject of experiment [10] is SF-295 CNS.

As to `CCOC(=O)c1nc2ccccc2nc1Nc1ccc(C(=O)OC)s1`, the TGI in [1], in experiment [2], in experiment [3], in experiment [4], in experiment [5] and in experiment [6] was more than 100 µM in each case. Also, the TGI in experiment [7], in experiment [8], in experiment [9] and in experiment [10] was more than 100 µM in each case.

In the case of `CCOP(=O)(OCC)C(Nc1ccc(Cl)cc1)c1ccc(F)cc1` (stereo not drawn), the TGI in experiment [1] is 59.9 µM; in experiment [2], more than 100 µM; in [3], 39.7 µM; in experiment [4] it was 62.9 µM; in [5], 40.8 µM; in [6] it was 53.9 µM. Also, the TGI was 49.7 µM in experiment [7], more than 100 µM in experiment [8], more than 100 µM in [9] and 44.8 µM in [10].

`CC1(C)C2CC3C(C)(C2)C31c1cc(Cl)ccc1N` (stereo not drawn): the TGI worked out at 26.8 µM in [1]; 22 µM in experiment [2]; 25.1 µM in experiment [3]; 27.6 µM in experiment [4]; 26.2 µM in [5]; 26 µM in experiment [6]. The TGI in [7] stood at 19.7 µM; in [8], 30.3 µM; in experiment [9], 33 µM; in experiment [10] it was 28.6 µM.

On to `COc1cc2nc(-c3cccs3)nc(Nc3ccccc3C(=O)NN)c2cc1OC`, for which the TGI in experiment [1], in [2], in [3], in experiment [4], in experiment [5] and in experiment [6] was more than 100 µM each time. Also, the TGI in experiment [7], in experiment [8], in [9] and in [10] was more than 100 µM throughout.

As to `N=C1C=CC(=C(c2ccc(N)cc2)c2ccc(N)cc2)C=C1`, the TGI is 29.2 µM in [1]; more than 64.9 µM in experiment [2]; 19.7 µM in experiment [3]; 14.3 µM in experiment [4]; 8.74 µM in experiment [5]; 16.3 µM in [6]. Also, the TGI in experiment [7] is 12.8 µM; in [8] it was 15.9 µM; in experiment [9], 51.4 µM; in experiment [10], 21.4 µM.

With `O=C(CC(=O)N1N=C(c2ccccc2)C(N=Nc2ccc(S(=O)(=O)CCOS(=O)(=O)O)cc2)C1=O)Nc1ccc(Cl)cc1` (stereo not drawn), the TGI in experiment [1], in [2], in experiment [3], in [4], in experiment [5] and in experiment [6] was more than 100 µM throughout. Moreover, the TGI in [7], in experiment [8], in experiment [9] and in [10] was more than 100 µM throughout.

Regarding `O/N=C1\C/C(=N\O)c2c(Br)sc(Br)c21`, the TGI in experiment [1] is more than 100 µM; in experiment [2] it was more than 100 µM; in experiment [3], more than 100 µM; in experiment [4], more than 100 µM; in experiment [5], more than 100 µM; in [6] it was 59.3 µM. Besides, the TGI in experiment [7] was 32.6 µM; in experiment [8] it was 40.3 µM; in experiment [9], more than 100 µM; in experiment [10], more than 100 µM.

Take `c1ccc2c(c1)nnn2C1CCCCO1` (stereo not drawn): the TGI in [1], in [2], in experiment [3], in [4], in experiment [5] and in experiment [6] was more than 100 µM each time. The TGI in experiment [7], in experiment [8], in experiment [9] and in [10] was more than 100 µM in each case.

In the case of `CCOC(=O)c1ccc2nc3n(c2c1)C(c1c(F)cccc1F)SC3` (stereo not drawn), the TGI in [1], in experiment [2], in experiment [3], in experiment [4], in experiment [5] and in experiment [6] was more than 100 µM throughout. Also, the TGI in [8], in [9] and in experiment [10] was more than 100 µM each time.

In the case of `O=C(CSc1nc2ccc(I)cc2c(=O)n1Cc1ccccc1)Nc1ccccc1`, the TGI was 1.55 µM in [1]; 33.3 µM in [2]; more than 100 µM in experiment [3]; more than 100 µM in experiment [4]; more than 100 µM in experiment [5]; more than 100 µM in experiment [6]. The TGI in [7] amounted to 90.6 µM; in experiment [8], 30 µM; in experiment [9], 11.6 µM; in [10], 66.7 µM.

In the case of `CCCCCCc1ccc(CCCCCCCC(=O)O)o1`, the TGI in experiment [1], in experiment [2], in [3], in experiment [4], in experiment [5] and in [6] was more than 100 µM in each case. In addition, the TGI in experiment [8], in [9] and in experiment [10] was more than 100 µM each time.

As to `OCc1ccc2c(c1)CC1(Cc3ccccc3C1)C2`, the TGI in [1] is 29.1 µM; in experiment [2], more than 100 µM; in [4], 33.6 µM; in experiment [5], more than 100 µM; in [6] it was 82.3 µM; in experiment [7], 72.1 µM. For the same compound, the TGI in experiment [8] is more than 100 µM; in experiment [9], 80.2 µM; in [10] it was 40.6 µM.

Consider `CC1(C)CCC2=C(O1)c1ccccc1C(=Nc1ccc([N+](=O)[O-])cc1)C2=O`, for which the TGI in experiment [1] stood at 22.4 µM; in [2], 37.7 µM; in [3], 29.2 µM; in [4], 25.2 µM; in experiment [5], 31 µM; in experiment [6], 52.9 µM. For the same compound, the TGI was 30.1 µM in experiment [7], more than 100 µM in experiment [8], 32.7 µM in experiment [9] and 29.9 µM in [10]. The GI50 is 15.8 µM in [3], 18.3 µM in experiment [6] and 14.9 µM in [10].

As for `C=CC(=O)N1C/C(=C\c2ccc(OC)cc2)C(=O)/C(=C/c2ccc(OC)cc2)C1`, the TGI in experiment [1] was 3.52 µM; in experiment [2] it was more than 100 µM; in experiment [3] it was 7.76 µM; in [4], 2.88 µM; in [5] it was more than 100 µM; in experiment [6] it was 4.79 µM. Moreover, the TGI in experiment [8] is more than 24.2 µM; in [9], 40.7 µM; in experiment [10] it was 6.98 µM.

In the case of `Cc1nc(N)c(N2CCN(S(=O)(=O)N(Cc3ccccc3)Cc3ccccc3)CC2)c(=O)[nH]1`, the TGI is more than 100 µM in [1]; more than 100 µM in [2]; 88.8 µM in [3]; 63.3 µM in experiment [4]; 59.7 µM in experiment [5]; 47.8 µM in [6]. In addition, the TGI in [8] is more than 100 µM; in experiment [9] it was more than 100 µM; in [10], 65.8 µM.

`C=C(C)C1(Sc2ccc(OC)cc2)CC1`: the TGI in experiment [1] is more than 100 µM; in experiment [2], 37.4 µM; in experiment [3], 44 µM; in experiment [4], 61.8 µM; in experiment [5] it was more than 100 µM; in experiment [6] it was more than 100 µM. The TGI in experiment [8] was more than 100 µM; in experiment [9] it was more than 100 µM; in experiment [10] it was 71 µM.

As for `NS(=O)(=O)c1nnc(NS(=O)(=O)c2cccc3cccnc23)s1`, the TGI in experiment [1], in [2], in [3], in [5], in [6] and in experiment [8] was more than 100 µM in each case. Besides, the TGI in [9] and in experiment [10] was more than 100 µM each time.

Consider `CC1CN(c2cc3c(cc2F)c(=O)c(C(=O)O)cn3-c2ccc(N3CCN(C)CC3)cn2)CC(C)N1` (stereo not drawn), for which the TGI in experiment [1], in experiment [2], in [3], in experiment [4], in [5] and in experiment [6] was more than 100 µM each time. Further, the TGI in [8], in experiment [9] and in experiment [10] was more than 100 µM throughout.

In the case of `CCC[N+](C)(C)CCCNC(=O)c1c(O)c2ccccc2[nH]c1=O`, the TGI in experiment [1], in [2], in [3], in experiment [4], in [5] and in experiment [6] was more than 100 µM in each case. Besides, the TGI in experiment [7], in experiment [8], in experiment [9] and in experiment [10] was more than 100 µM throughout.

Turning to `N=c1ncn(C/C=C/c2ccccc2)c2nc[nH]c12`, the TGI in experiment [1], in experiment [2], in [3], in experiment [4], in experiment [5] and in experiment [6] was more than 100 µM throughout. Also, the TGI in experiment [7], in experiment [8], in [9] and in experiment [10] was more than 100 µM in each case.

`O=C1C(c2ccccc2)=C(c2ccccc2)C1(Cl)Cl`: the TGI in [1] worked out at 13.5 µM; in [2] it was 4.82 µM; in experiment [3] it was 6.7 µM; in experiment [4], 13.6 µM; in [5], 10.6 µM; in experiment [6], 7.72 µM. Moreover, the TGI in experiment [7] turned out to be 4.51 µM; in experiment [8], 8.98 µM; in experiment [9], 21.7 µM; in experiment [10], 28.7 µM.

Turning to `O=C(CCCCCNC(=O)c1ccc(Cl)cc1)NO`, the TGI in experiment [1] was 37.8 µM; in [2], 53.7 µM; in [3] it was 31.3 µM; in experiment [4], more than 100 µM; in [5], 5.14 µM; in experiment [6] it was 51.5 µM. The TGI is 15.2 µM in [7], 86.8 µM in [8], more than 100 µM in [9] and 36.1 µM in experiment [10].

For the compound `Cc1cn(C2CC(O)C(Cn3nncc3Cn3nc(Br)c(=O)[nH]c3=O)O2)c(=O)[nH]c1=O` (stereo not drawn), the TGI in experiment [1], in experiment [2], in [3], in experiment [5], in [6] and in experiment [7] was more than 100 µM each time. Also, the TGI in experiment [8], in experiment [9] and in [10] was more than 100 µM throughout.

As for `COc1cc(C2c3cccc4cccc(c34)C3CCC(=O)N32)cc(OC)c1O` (stereo not drawn), the TGI in experiment [1], in experiment [2], in [3], in [4], in [5] and in experiment [6] was more than 50 µM in each case. In addition, the TGI in experiment [8], in experiment [9] and in experiment [10] was more than 50 µM in each case.

With `N=C(N)SCc1nc(-c2ccc(Cl)cc2)no1`, the TGI in experiment [2] was 21.9 µM; in experiment [3], 28.4 µM; in experiment [4], 29.3 µM; in experiment [5], 29.9 µM; in [6] it was more than 100 µM; in [7], 25.1 µM. Further, the figures for the TGI in experiment [8], in experiment [9] and in experiment [10] were more than 100 µM, 89.4 µM and more than 100 µM, respectively.

For the compound `CCCCCc1cc2cc3c(c(O)c2c(=O)[nH]1)C1(CCC3)C(=O)c2c(O)ccc(O)c2C1=O`, the TGI in experiment [1], in experiment [2], in [3], in experiment [4], in experiment [6] and in experiment [7] was more than 100 µM in each case. Besides, the TGI in experiment [8], in [9] and in [10] was more than 100 µM in each case.

Turning to `CCCN=C1NC(C)=CSC(Nc2ccccc2)=C1C#N`, the TGI in [1], in [2], in experiment [3], in experiment [5], in experiment [6] and in experiment [7] was more than 100 µM in each case. Also, the TGI in experiment [8] and in experiment [10] was more than 100 µM each time.

For the compound `Oc1ccc(-c2nc3cc(C(F)(F)F)ccc3s2)cc1`, the TGI in [1] is 26.8 µM; in [2], 35.2 µM; in [3], 29.5 µM; in [4], 35.9 µM; in experiment [6], 30.5 µM; in [7] it was 25.7 µM. Besides, the TGI in [8] turned out to be 29.4 µM; in [9], 16.9 µM; in experiment [10], 28.2 µM.

Take `CC(C)(C)OC(=O)N1C(=O)C2CCCC21` (stereo not drawn): the TGI in experiment [2], in experiment [3], in experiment [4], in experiment [5], in [6] and in [8] was more than 100 µM each time.

The record behind these values is PubChem BioAssay (NCI).
